# Patent publication US20100029620A1, “SUBSTITUTED TRIAZOLINE, TETRAZOLONE AND IMIDAZOLONE DERIVATIVES FOR USE AS A MEDICINE” (JANSSEN PHARMACEUTICA N.V., priority 2004, published 2010)
# Tests used:
# [1] = biological target: T1, human adrenergic-α2A receptor (Homo sapiens, UniProt P08913); assay: Radioligand binding experiment for α2A-adrenoceptor ([3H]-raulwolscine competition, CHO cell membranes); details: [3H]raulwolscine 1 nM, membranes of CHO cells transfected with human α2A receptor; read-out: pIC50 α2A (converted)
# T1 construct: expressed in transfected cells; membrane preparation
# T1 sequence (P08913 1-465): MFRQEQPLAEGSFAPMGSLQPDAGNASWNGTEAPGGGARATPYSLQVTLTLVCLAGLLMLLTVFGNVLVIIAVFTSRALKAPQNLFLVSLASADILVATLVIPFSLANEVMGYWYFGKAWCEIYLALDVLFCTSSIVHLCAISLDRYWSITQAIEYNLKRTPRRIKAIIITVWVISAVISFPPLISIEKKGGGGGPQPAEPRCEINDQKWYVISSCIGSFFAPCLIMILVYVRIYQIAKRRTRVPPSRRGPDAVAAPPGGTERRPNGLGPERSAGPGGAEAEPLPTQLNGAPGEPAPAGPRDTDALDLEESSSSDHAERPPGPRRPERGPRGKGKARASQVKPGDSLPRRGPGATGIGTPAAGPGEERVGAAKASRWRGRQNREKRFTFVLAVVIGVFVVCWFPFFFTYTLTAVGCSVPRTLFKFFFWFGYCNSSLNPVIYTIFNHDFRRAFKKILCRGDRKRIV
# Experimental: (§1) The interaction of the compounds of Formula (I) with α2C-adrenoceptor receptors was assessed in in vitro radioligand binding experiments. In general, a low concentration of a radioligand with a high binding affinity for a particular receptor or transporter is incubated with a sample of a tissue preparation enriched in a particular receptor or transporter or with a preparation of cells expressing cloned human receptors in a buffered medium. During the incubation, the radioligand binds to the receptor or transporter. When equilibrium of binding is reached, the receptor bound radioactivity is separated from the non-bound radioactivity, and the receptor- or transporter-bound activity is counted. The interaction of the test compounds with the receptor is assessed in competition binding experiments. Various concentrations of the test compound are added to the incubation mixture containing the receptor- or transporter preparation and the radioligand. The test compound in proportion to its binding affinity and its concentration inhibits binding of the radioligand. The radioligand used for […] receptor binding was [^3H]-raulwolscine.
# (§2) CHO cells, stabile transfected with human adrenergic-α2A-, -α2B or α2C receptor cDNA, were cultured in Dulbecco's Modified Eagle's Medium (DMEM)/Nutrient mixture Ham's F12 (ratio 1:1)(Gibco, Gent-Belgium) supplemented with 10% heat inactivated fetal calf serum (Life Technologies, Merelbeke-Belgium) and antibiotics (100 IU/ml penicillin G, 100 μg/ml streptomycin sulphate, 110 μg/ml pyruvic acid and 100 μg/ml L-glutamine). One day before collection, cells were induced with 5 mM sodiumbutyrate. Upon 80-90% of confluence, cells were scraped in phosphate buffered saline without Ca^2+ and Mg^2+ and collected by centrifugation at 1500×g for 10 min. The cells were homogenised in Tris-HCl 50 mM using an Ultraturrax homogenizer and centrifuged for 10 min at 23,500×g. The pellet was washed once by resuspension and rehomogenization and the final pellet was resuspended in Tris-HCl, divided in 1 ml aliquots and stored at −70° C.
# (§3) Membranes were thawed and re-homogenized in incubation buffer (glycylglycine 25 mM, pH 8.0). In a total volume of 500 μl, 2-10 μg protein was incubated with [^3H]raulwolscine (NET-722) (New England Nuclear, USA) (1 nM final concentration) with or without competitor for 60 min at 25° C. followed by rapid filtration over GF/B filter using a Filtermate196 harvester (Packard, Meriden, Conn.). Filters were rinsed extensively with ice-cold rinsing buffer (Tris-HCl 50 mM pH 7.4). Filter-bound radioactivity was determined by scintillation counting in a Topcount (Packard, Meriden, CT) and results were expressed as counts per minute (cpm). Non-specific binding was determined in the presence of 1 μM oxymetazoline for hα2A- and hα2B receptors and 1 μM spiroxatrine for hα2C receptors.
# (§4) Data from assays in the presence of compound were calculated as a percentage of total binding measured in the absence of test compound. Inhibition curves, plotting percent of total binding versus the log value of the concentration of the test compound, were automatically generated, and sigmoidal inhibition curves were fitted using non-linear regression. The pIC50 values of test compounds were derived from individual curves.
# [2] = biological target: T2, human adrenergic-α2B receptor (Homo sapiens, UniProt P18089); assay: Radioligand binding experiment for α2B-adrenoceptor ([3H]-raulwolscine competition, CHO cell membranes); details: [3H]raulwolscine 1 nM, membranes of CHO cells transfected with human α2B receptor; for IC50: read-out: pIC50 α2B (converted)
# T2 construct: expressed in transfected cells; membrane preparation
# T2 sequence (P18089 1-450): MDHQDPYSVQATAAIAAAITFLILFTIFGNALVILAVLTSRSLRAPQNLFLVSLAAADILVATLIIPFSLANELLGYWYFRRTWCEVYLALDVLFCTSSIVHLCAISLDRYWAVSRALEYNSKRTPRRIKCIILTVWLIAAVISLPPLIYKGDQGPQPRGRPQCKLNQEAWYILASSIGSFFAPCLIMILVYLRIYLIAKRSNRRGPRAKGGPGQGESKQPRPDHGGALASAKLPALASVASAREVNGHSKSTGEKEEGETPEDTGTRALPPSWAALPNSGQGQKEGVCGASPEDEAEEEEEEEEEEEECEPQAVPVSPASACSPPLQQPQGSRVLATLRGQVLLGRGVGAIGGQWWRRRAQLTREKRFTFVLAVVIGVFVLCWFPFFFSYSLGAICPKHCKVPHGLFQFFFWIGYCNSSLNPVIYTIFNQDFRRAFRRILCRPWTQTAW
# Experimental: as §1, §2, §3, §4
# [3] = biological target: T3, human adrenergic-α2C receptor (Homo sapiens, UniProt P18825); assay: Radioligand binding experiment for α2C-adrenoceptor ([3H]-raulwolscine competition, CHO cell membranes); details: [3H]raulwolscine 1 nM, membranes of CHO cells transfected with human α2C receptor; read-out: pIC50 α2C (converted)
# T3 construct: expressed in transfected cells; membrane preparation
# T3 sequence (P18825 1-462): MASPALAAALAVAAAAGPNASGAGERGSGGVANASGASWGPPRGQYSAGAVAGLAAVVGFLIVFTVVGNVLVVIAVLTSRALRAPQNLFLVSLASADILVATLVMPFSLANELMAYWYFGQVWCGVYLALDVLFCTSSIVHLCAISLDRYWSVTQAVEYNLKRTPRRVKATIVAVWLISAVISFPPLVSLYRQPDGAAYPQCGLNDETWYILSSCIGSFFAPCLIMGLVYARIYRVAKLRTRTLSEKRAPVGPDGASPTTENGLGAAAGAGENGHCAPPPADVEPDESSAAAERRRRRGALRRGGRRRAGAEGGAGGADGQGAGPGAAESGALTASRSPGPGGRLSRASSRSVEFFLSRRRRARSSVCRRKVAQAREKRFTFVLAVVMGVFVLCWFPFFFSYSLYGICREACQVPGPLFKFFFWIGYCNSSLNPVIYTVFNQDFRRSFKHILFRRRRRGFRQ
# Experimental: as §1, §2, §3, §4
SMILES,IC50 [1] [nM],IC50 [2] [nM],IC50 [3] [nM],pIC50 α2B [2]
O=c1n(-c2ccc(NCCN3CCOCC3)cc2)cnn1CC1CCN(CCOc2ccccc2)CC1 [compound 50],251,15.8,12.6,–
CN1CCN(c2ccc(-n3cnn(CC4CCN(CCOc5ccccc5)CC4)c3=O)cc2)CC1 [compound 51],158,7.94,7.94,–
CC(C)N1CCN(c2ccc(-n3cnn(CC4CCN(CCOc5ccccc5)CC4)c3=O)cc2)CC1 [compound 53],100,3.98,5.01,–
O=c1n(-c2ccc(N3CCN(Cc4ccccc4)CC3)cc2)cnn1CC1CCN(CCOc2ccccc2)CC1 [compound 54],158,31.6,15.8,–
COc1ccccc1C1CCN(C(C)C(C)n2ncn(-c3ccc(N4CCN(c5ccc(O)cc5)CC4)cc3)c2=O)C1 (stereo not drawn) [compound 55],1260,50.1,15.8,–
CN1CCCN(c2ccc(-n3cnn(CC4CCN(CCOc5ccccc5)CC4)c3=O)cc2)CC1 [compound 60],39.8,5.01,2,–
CN1CCCN(Cc2ccc(-n3cnn(CC4CCN(CCOc5ccccc5)CC4)c3=O)cc2)CC1 [compound 61],63.1,10,1.26,–
O=c1n(-c2ccc(CN3CCCC3)cc2)cnn1CC1CCN(CCOc2ccccc2)CC1 [compound 62],39.8,10,0.501,–
O=c1n(-c2ccc(N3CCCCC3)cc2)cnn1CC1CCN(CCOc2ccccc2)CC1 [compound 63],158,31.6,5.01,–
O=c1n(-c2ccc(CN3CCCCC3)cc2)cnn1CC1CCN(CCOc2ccccc2)CC1 [compound 64],50.1,12.6,0.631,–
O=c1n(-c2ccc(CN3CCC(O)CC3)cc2)cnn1CC1CCN(CCOc2ccccc2)CC1 [compound 65],79.4,20,1.26,–
O=c1n(CC2CCN(CCOc3ccccc3)CC2)cnn1CCN1CCCCC1 [compound 66],39.8,50.1,2.51,–
O=c1n(CC2CCN(CCOc3ccccc3)CC2)cnn1CCN1CCOCC1 [compound 67],398,100,25.1,–
O=c1n(-c2ccc(CN3CCC(N4CCCC4)CC3)cc2)cnn1CC1CCN(CCOc2ccccc2)CC1 [compound 68],39.8,7.94,2.51,–
O=c1n(CCN2CCOCC2)cnn1CC1CCN(CCOc2ccccc2)CC1 [compound 71],251,251,20,–
O=c1n(-c2ccc(N3CCOCC3)cc2)cnn1CC1CCN(CCOc2ccccc2)CC1 [compound 72],158,25.1,7.94,–

SMILES,IC50 [1] [nM],IC50 [2] [nM],IC50 [3] [nM],pIC50 α2B [2]
O=c1n(-c2ccc(CN3CCOCC3)cc2)cnn1CC1CCN(CCOc2ccccc2)CC1 [compound 73],158,39.8,1.58,–
C/C(=C\c1ccccc1)CN1CCC(n2cnn(CCN3CCCCC3)c2=O)CC1 [compound 79],398,631,31.6,–
O=C1c2ccccc2C(=O)N1CCCn1ncn(CC2CCN(CCOc3ccccc3)CC2)c1=O [compound 82],12.6,15.8,1,–
C/C(=C\c1ccccc1)CN1CCC(n2cnn(CCCN3C(=O)c4ccccc4C3=O)c2=O)CC1 [compound 83],316,50.1,5.01,–
O=C1c2ccccc2C(=O)N1CCCn1cnn(CC2CCN(CCOc3ccccc3)CC2)c1=O [compound 84],25.1,20,0.631,–
NCc1ccc(Cn2cnn(CCNCCOc3ccccc3)c2=O)cc1 [compound 85],126,126,6.31,–
CN(C)CCNc1ccc(-n2cnn(CCNCCOc3ccccc3)c2=O)cc1 [compound 86],39.8,31.6,1,–
CN(C)CCNc1ccc(-n2cnn(CCNCCOc3ccccc3)c2=O)cc1 [compound 87],31.6,–,1.26,7.5
O=c1n(-c2ccc(NCCN3CCCC3)cc2)cnn1CCNCCOc1ccccc1 [compound 88],39.8,39.8,2,–
O=c1n(-c2ccc(NCc3ccc(F)cc3)cc2)cnn1CCNCCOc1ccccc1 [compound 89],251,126,2,–
O=c1n(-c2ccc(CNCCc3ccccc3)cc2)cnn1CCNCCOc1ccccc1 [compound 90],20,50.1,0.631,–
O=c1n(-c2ccc(CNCc3ccc(F)cc3)cc2)cnn1CCNCCOc1ccccc1 [compound 91],31.6,79.4,5.01,–
O=c1n(-c2ccc(CNCc3ccccc3)cc2)cnn1CCNCCOc1ccccc1 [compound 92],25.1,200,5.01,–
O=c1n(-c2ccc(CNCC3CCCO3)cc2)cnn1CCNCCOc1ccccc1 (stereo not drawn) [compound 93],50.1,126,1.26,–
CN(Cc1ccccc1)Cc1ccc(-n2cnn(CCNCCOc3ccccc3)c2=O)cc1 [compound 94],31.6,126,3.16,–
O=c1n(-c2ccc(CNCCN3CCCCC3)cc2)cnn1CCNCCOc1ccccc1 [compound 95],15.8,126,1.58,–
